According to patent publication US20210395652A1, “TEXTILE TREATMENT COMPOSITIONS” (priority 2020, published 2021):
Like-named read-outs stand apart in the source and are kept apart here.

How the values were obtained:
[1] = test system: NCTC clone 1469 cells; assay: Cytotoxicity control of the treated fabric test; type: cell-based, mouse; conditions: Formaldehyde control
Experimental: Controls were untreated fabric pieces of the same size. After incubation with the virus for 15, 30 or 60 minutes the samples were neutralized with D/E broth, vortexed to remove the virus from the fabric and passed over a Sephadex LH-20 column to remove potential cytotoxic substances. Serial dilutions of the column eluates were used to inoculate NCTC clone 1469 cells in a 96 well plate to determine the TCID50 for the virus at each time. After 14 days the wells were examined for cytopathological effects (CPE) in the cells and scored accordingly.

[2] = test system: NCTC clone 1469 cells; conditions: mouse, pH 7.3

SMILES: C=O [Formaldehyde]
- dilution to which all cells were killed [1]: killed all cells to the 10^−2 dilution
- dilution to which all cells were killed [2]: killed all cells to the 10^4 dilution
